{"source": "ChEMBL document CHEMBL1201862", "about": "“PubChem BioAssay data set” (2004)", "experiment_in_all_cases": "growth of human tumour cells (NCI), 48 h", "key": {"[1]": {"tested_on": "HCC 2998"}, "[2]": {"tested_on": "OVCAR-3"}, "[3]": {"tested_on": "HCT-15"}, "[4]": {"tested_on": "M14"}, "[5]": {"tested_on": "SNB-75"}, "[6]": {"tested_on": "RXF 393"}, "[7]": {"tested_on": "HOP-62"}, "[8]": {"tested_on": "SF-295"}, "[9]": {"tested_on": "HOP-92"}, "[10]": {"tested_on": "T47D"}, "[11]": {"tested_on": "786-0"}, "[12]": {"tested_on": "SR"}, "[13]": {"tested_on": "OVCAR-4"}, "[14]": {"tested_on": "EKVX"}, "[15]": {"tested_on": "NCI-H23"}, "[16]": {"tested_on": "SK-MEL-5"}, "[17]": {"tested_on": "UACC-62"}, "[18]": {"tested_on": "MDA-MB-435"}, "[19]": {"tested_on": "Hs-578T"}, "[20]": {"tested_on": "HCT-116"}, "[21]": {"tested_on": "ACHN"}, "[22]": {"tested_on": "RPMI-8226"}, "[23]": {"tested_on": "SK-OV-3"}, "[24]": {"tested_on": "A498"}, "[25]": {"tested_on": "CAKI-1"}, "[26]": {"tested_on": "SW-620"}, "[27]": {"tested_on": "TK-10"}, "[28]": {"tested_on": "KM12"}, "[29]": {"tested_on": "NCI-H226"}, "[30]": {"tested_on": "MCF7"}, "[31]": {"tested_on": "SF-539"}, "[32]": {"tested_on": "NCI/ADR-RES"}, "[33]": {"tested_on": "A549"}, "[34]": {"tested_on": "UO-31"}, "[35]": {"tested_on": "OVCAR-8"}, "[36]": {"tested_on": "OVCAR-5"}, "[37]": {"tested_on": "LOX IMVI"}, "[38]": {"tested_on": "DU-145"}, "[39]": {"tested_on": "UACC-257"}, "[40]": {"tested_on": "U-251"}, "[41]": {"tested_on": "MDA-N"}, "[42]": {"tested_on": "CCRF-CEM"}, "[43]": {"tested_on": "NCI-H460"}, "[44]": {"tested_on": "HT-29"}, "[45]": {"tested_on": "IGROV-1"}, "[46]": {"tested_on": "COLO 205"}, "[47]": {"tested_on": "HL-60"}, "[48]": {"tested_on": "NCI-H522"}, "[49]": {"tested_on": "SN12C"}, "[50]": {"tested_on": "SF-268"}, "[51]": {"tested_on": "MOLT-4"}}, "note": "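Following 48 hours of exposure in 96-well plates, responses at five concentrations were used to interpolate endpoints linearly. GI50 marks 50% less growth.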 The source made the active and inactive calls. No stated cut-off is given here; in the data, active = GI50 up to about 1.1 µM and inactive = higher."}
{"smiles": "c1csc(-c2ccsc2-c2cccs2)c1", "values": [{"measurement": "GI50", "setting": "[1]", "value": "53.7 µM (inactive)"}, {"measurement": "GI50", "setting": "[2]", "value": "> 100 µM (inactive)"}, {"measurement": "GI50", "setting": "[3]", "value": 31, "unit": "µM"}, {"measurement": "GI50", "setting": "[4]", "value": "59.2 µM (inactive)"}, {"measurement": "GI50", "setting": "[5]", "value": "54.6 µM (inactive)"}, {"measurement": "GI50", "setting": "[6]", "value": "44.9 µM (inactive)"}, {"measurement": "GI50", "setting": "[7]", "value": "> 100 µM (inactive)"}, {"measurement": "GI50", "setting": "[8]", "value": "> 100 µM (inactive)"}, {"measurement": "GI50", "setting": "[9]", "value": "> 100 µM (inactive)"}, {"measurement": "GI50", "setting": "[10]", "value": "29.9 µM (inactive)"}, {"measurement": "GI50", "setting": "[11]", "value": "> 100 µM (inactive)"}, {"measurement": "GI50", "setting": "[12]", "value": "1.18 µM (inactive)"}, {"measurement": "GI50", "setting": "[13]", "value": "33 µM (inactive)"}, {"measurement": "GI50", "setting": "[14]", "value": "> 100 µM (inactive)"}, {"measurement": "GI50", "setting": "[15]", "value": "13.3 µM (inactive)"}, {"measurement": "GI50", "setting": "[16]", "value": "98.9 µM (inactive)"}, {"measurement": "GI50", "setting": "[17]", "value": "> 100 µM (inactive)"}, {"measurement": "GI50", "setting": "[18]", "value": "24.4 µM (inactive)"}, {"measurement": "GI50", "setting": "[19]", "value": "52.8 µM (inactive)"}, {"measurement": "GI50", "setting": "[20]", "value": "92.9 µM (inactive)"}, {"measurement": "GI50", "setting": "[21]", "value": "> 100 µM (inactive)"}, {"measurement": "GI50", "setting": "[22]", "value": "16.8 µM (inactive)"}, {"measurement": "GI50", "setting": "[23]", "value": "> 100 µM (inactive)"}, {"measurement": "GI50", "setting": "[24]", "value": "36 µM (inactive)"}, {"measurement": "GI50", "setting": "[25]", "value": "> 100 µM (inactive)"}, {"measurement": "GI50", "setting": "[26]", "value": "80.4 µM (inactive)"}, {"measurement": "GI50", "setting": "[27]", "value": "> 100 µM (inactive)"}, {"measurement": "GI50", "setting": "[28]", "value": "47.6 µM (inactive)"}, {"measurement": "GI50", "setting": "[29]", "value": "46.8 µM (inactive)"}, {"measurement": "GI50", "setting": "[30]", "value": "34.6 µM (inactive)"}, {"measurement": "GI50", "setting": "[31]", "value": "> 100 µM (inactive)"}, {"measurement": "GI50", "setting": "[32]", "value": "43.3 µM (inactive)"}, {"measurement": "GI50", "setting": "[33]", "value": "19.2 µM (inactive)"}, {"measurement": "GI50", "setting": "[34]", "value": "39.5 µM (inactive)"}, {"measurement": "GI50", "setting": "[35]", "value": "> 100 µM (inactive)"}, {"measurement": "GI50", "setting": "[36]", "value": "> 100 µM (inactive)"}, {"measurement": "GI50", "setting": "[37]", "value": "98.6 µM (inactive)"}, {"measurement": "GI50", "setting": "[38]", "value": "> 100 µM (inactive)"}, {"measurement": "GI50", "setting": "[39]", "value": "> 100 µM (inactive)"}, {"measurement": "GI50", "setting": "[40]", "value": "> 100 µM (inactive)"}, {"measurement": "GI50", "setting": "[41]", "value": "35.8 µM (inactive)"}, {"measurement": "GI50", "setting": "[42]", "value": "76.9 µM (inactive)"}, {"measurement": "GI50", "setting": "[43]", "value": "80.9 µM (inactive)"}, {"measurement": "GI50", "setting": "[44]", "value": "> 100 µM (inactive)"}, {"measurement": "GI50", "setting": "[45]", "value": "> 100 µM (inactive)"}, {"measurement": "GI50", "setting": "[46]", "value": "52.2 µM (inactive)"}, {"measurement": "GI50", "setting": "[47]", "value": "30.5 µM (inactive)"}, {"measurement": "GI50", "setting": "[48]", "value": "31.5 µM (inactive)"}, {"measurement": "GI50", "setting": "[49]", "value": "> 100 µM (inactive)"}, {"measurement": "GI50", "setting": "[50]", "value": "> 100 µM (inactive)"}, {"measurement": "GI50", "setting": "[51]", "value": "11.9 µM (inactive)"}]}
